Results: ChEMBL document CHEMBL3885861, “Open TG-GATES”

Species on record: Rattus norvegicus
Experiment: Open TG-GATES - Regimen: Single
Assay type: toxicity, organism-based, Sprague-Dawley
Parameters: regimen Single, gender Male, age 6 weeks
Conditions: in vivo, po, route gavage; for APTT / Bas / Eos / Fbg / Hb / Ht / Lym / MCH / MCHC / MCV / Mono / Neu / PT / Plat / RBC / Ret / WBC: tissue Blood; for KIDNEY_L / KIDNEY_R / KIDNEY_TOTAL: tissue Kidney; for LIVER: tissue Liver; for A/G / ALP / ALT / AST / BUN / CRE / Ca / Cl / DBIL / GLC / IP / K / LDH / Na / PL / RALB / TBIL / TC / TG / TP / gamma-GTP: tissue Plasma
[1] = 100 mg/kg, 3 h, dose level Middle
[2] = 100 mg/kg, 6 h, dose level Middle
[3] = 100 mg/kg, 9 h, dose level Middle
[4] = 100 mg/kg, 24 h, dose level Middle
[5] = 300 mg/kg, 3 h, dose level High
[6] = 300 mg/kg, 6 h, dose level High
[7] = 300 mg/kg, 9 h, dose level High
[8] = 300 mg/kg, 24 h, dose level High

NC(=O)N/N=C/c1ccc([N+](=O)[O-])o1 [NITROFURAZONE]
TERMINAL_BW [1]: 183.7 g
APTT [1]: 16.6 s
Bas [1]: 0.2%
Eos [1]: 1%
Fbg [1]: 235.8 mg/dL
Hb [1]: 12.4 g/dL
Ht [1]: 38.5%
Lym [1]: 73.4%
MCH [1]: 21.7 pg
MCHC [1]: 32.3%
MCV [1]: 67.2 fL
Mono [1]: 5.2%
Neu [1]: 19.6%
PT [1]: 14.8 s
Plat [1]: 123.7 x10_4/uL
RBC [1]: 572.4 x10_4/ul
Ret [1]: 11.4%
WBC [1]: 71.3 x10_2/uL
KIDNEY_L [1]: 0.8 g
KIDNEY_R [1]: 0.8 g
KIDNEY_TOTAL [1]: 1.6 g
LIVER [1]: 7.7 g
A/G [1]: 0.9
ALP [1]: 1361.8 IU/L
ALT [1]: 41.2 IU/L
AST [1]: 74.8 IU/L
BUN [1]: 11.8 mg/dL
CRE [1]: 0.2 mg/dL
Ca [1]: 11.3 mg/dL
Cl [1]: 104.8 meq/L
DBIL [1]: 0.006 mg/dL
GLC [1]: 177.6 mg/dL
IP [1]: 8.8 mg/dL
K [1]: 4.3 meq/L
LDH [1]: 51.6 IU/L
Na [1]: 140.8 meq/L
PL [1]: 127.6 mg/dL
RALB [1]: 2.4 g/dL
TBIL [1]: 0.06 mg/dL
TC [1]: 73.4 mg/dL
TG [1]: 29.8 mg/dL
TP [1]: 5.2 g/dL
gamma-GTP [1]: 1.2 IU/L
TERMINAL_BW [2]: 182.2 g
APTT [2]: 16 s
Bas [2]: 0%
Eos [2]: 1%
Fbg [2]: 272.8 mg/dL
Hb [2]: 12.8 g/dL
Ht [2]: 40%
Lym [2]: 71.2%
MCH [2]: 21.3 pg
MCHC [2]: 32%
MCV [2]: 66.4 fL
Mono [2]: 3.2%
Neu [2]: 23.8%
PT [2]: 14.6 s
Plat [2]: 112.7 x10_4/uL
RBC [2]: 602 x10_4/ul
Ret [2]: 10.1%
WBC [2]: 85.4 x10_2/uL
KIDNEY_L [2]: 0.8 g
KIDNEY_R [2]: 0.8 g
KIDNEY_TOTAL [2]: 1.7 g
LIVER [2]: 7.3 g
A/G [2]: 0.9
ALP [2]: 1451.4 IU/L
ALT [2]: 41.4 IU/L
AST [2]: 74 IU/L
BUN [2]: 8.6 mg/dL
CRE [2]: 0.2 mg/dL
Ca [2]: 11.3 mg/dL
Cl [2]: 105.2 meq/L
DBIL [2]: 0.01 mg/dL
GLC [2]: 162.4 mg/dL
IP [2]: 9.8 mg/dL
K [2]: 3.8 meq/L
LDH [2]: 85.8 IU/L
Na [2]: 142.4 meq/L
PL [2]: 146.6 mg/dL
RALB [2]: 2.4 g/dL
TBIL [2]: 0.072 mg/dL
TC [2]: 89.4 mg/dL
TG [2]: 25.8 mg/dL
TP [2]: 5.2 g/dL
gamma-GTP [2]: 1.2 IU/L
TERMINAL_BW [3]: 176.6 g
APTT [3]: 15.8 s
Bas [3]: 0%
Eos [3]: 1%
Fbg [3]: 270.8 mg/dL
Hb [3]: 13.5 g/dL
Ht [3]: 41.4%
Lym [3]: 72.5%
MCH [3]: 21.6 pg
MCHC [3]: 32.4%
MCV [3]: 66.6 fL
Mono [3]: 2.8%
Neu [3]: 22.8%
PT [3]: 14.8 s
Plat [3]: 103.9 x10_4/uL
RBC [3]: 622.2 x10_4/ul
Ret [3]: 10.2%
WBC [3]: 69.6 x10_2/uL
KIDNEY_L [3]: 0.8 g
KIDNEY_R [3]: 0.8 g
KIDNEY_TOTAL [3]: 1.6 g
LIVER [3]: 7.2 g
A/G [3]: 0.9
ALP [3]: 1273.8 IU/L
ALT [3]: 39 IU/L
AST [3]: 74.5 IU/L
BUN [3]: 9 mg/dL
CRE [3]: 0.2 mg/dL
Ca [3]: 10.9 mg/dL
Cl [3]: 104.5 meq/L
DBIL [3]: 0.0175 mg/dL
GLC [3]: 165 mg/dL
IP [3]: 11.4 mg/dL
K [3]: 4 meq/L
LDH [3]: 69.2 IU/L
Na [3]: 142.2 meq/L
PL [3]: 149.5 mg/dL
RALB [3]: 2.4 g/dL
TBIL [3]: 0.0675 mg/dL
TC [3]: 83.5 mg/dL
TG [3]: 38.8 mg/dL
TP [3]: 5.1 g/dL
gamma-GTP [3]: 1.2 IU/L
TERMINAL_BW [4]: 185.1 g
APTT [4]: 15.7 s
Bas [4]: 0%
Eos [4]: 0.6%
Fbg [4]: 296 mg/dL
Hb [4]: 13.1 g/dL
Ht [4]: 40.5%
Lym [4]: 83.4%
MCH [4]: 21.8 pg
MCHC [4]: 32.4%
MCV [4]: 67.2 fL
Mono [4]: 3%
Neu [4]: 12.2%
PT [4]: 14.8 s
Plat [4]: 109 x10_4/uL
RBC [4]: 602 x10_4/ul
Ret [4]: 9.3%
WBC [4]: 90.2 x10_2/uL
KIDNEY_L [4]: 0.8 g
KIDNEY_R [4]: 0.8 g
KIDNEY_TOTAL [4]: 1.7 g
LIVER [4]: 8.6 g
A/G [4]: 0.9
ALP [4]: 1441.6 IU/L
ALT [4]: 44.6 IU/L
AST [4]: 78.4 IU/L
BUN [4]: 14 mg/dL
CRE [4]: 0.2 mg/dL
Ca [4]: 11 mg/dL
Cl [4]: 103.6 meq/L
DBIL [4]: 0.016 mg/dL
GLC [4]: 168.8 mg/dL
IP [4]: 8.5 mg/dL
K [4]: 4 meq/L
LDH [4]: 71.6 IU/L
Na [4]: 140.6 meq/L
PL [4]: 140.6 mg/dL
RALB [4]: 2.5 g/dL
TBIL [4]: 0.058 mg/dL
TC [4]: 77.6 mg/dL
TG [4]: 73.8 mg/dL
TP [4]: 5.4 g/dL
gamma-GTP [4]: 1 IU/L
TERMINAL_BW [5]: 181.2 g
APTT [5]: 16.7 s
Bas [5]: 0%
Eos [5]: 0.6%
Fbg [5]: 230.6 mg/dL
Hb [5]: 12.3 g/dL
Ht [5]: 38.2%
Lym [5]: 70.4%
MCH [5]: 21.7 pg
MCHC [5]: 32.3%
MCV [5]: 67 fL
Mono [5]: 4.6%
Neu [5]: 23.6%
PT [5]: 14.9 s
Plat [5]: 114.6 x10_4/uL
RBC [5]: 569.8 x10_4/ul
Ret [5]: 10.8%
WBC [5]: 73.1 x10_2/uL
KIDNEY_L [5]: 0.8 g
KIDNEY_R [5]: 0.8 g
KIDNEY_TOTAL [5]: 1.6 g
LIVER [5]: 7.5 g
A/G [5]: 0.9
ALP [5]: 1634 IU/L
ALT [5]: 47 IU/L
AST [5]: 81.6 IU/L
BUN [5]: 11.8 mg/dL
CRE [5]: 0.2 mg/dL
Ca [5]: 11.1 mg/dL
Cl [5]: 105.2 meq/L
DBIL [5]: 0.002 mg/dL
GLC [5]: 181.6 mg/dL
IP [5]: 8.9 mg/dL
K [5]: 3.9 meq/L
LDH [5]: 47.8 IU/L
Na [5]: 142 meq/L
PL [5]: 135.8 mg/dL
RALB [5]: 2.4 g/dL
TBIL [5]: 0.056 mg/dL
TC [5]: 78 mg/dL
TG [5]: 29.4 mg/dL
TP [5]: 5.2 g/dL
gamma-GTP [5]: 1.6 IU/L
TERMINAL_BW [6]: 181.5 g
APTT [6]: 15.7 s
Bas [6]: 0%
Eos [6]: 1%
Fbg [6]: 265 mg/dL
Hb [6]: 12.7 g/dL
Ht [6]: 39.5%
Lym [6]: 71.2%
MCH [6]: 21.5 pg
MCHC [6]: 32.1%
MCV [6]: 67 fL
Mono [6]: 4%
Neu [6]: 23.4%
PT [6]: 14.6 s
Plat [6]: 115.7 x10_4/uL
RBC [6]: 589.4 x10_4/ul
Ret [6]: 10.7%
WBC [6]: 70.2 x10_2/uL
KIDNEY_L [6]: 0.8 g
KIDNEY_R [6]: 0.8 g
KIDNEY_TOTAL [6]: 1.6 g
LIVER [6]: 7.6 g
A/G [6]: 0.9
ALP [6]: 1281.4 IU/L
ALT [6]: 44 IU/L
AST [6]: 77 IU/L
BUN [6]: 9.2 mg/dL
CRE [6]: 0.2 mg/dL
Ca [6]: 11 mg/dL
Cl [6]: 105.4 meq/L
DBIL [6]: 0.006 mg/dL
GLC [6]: 171 mg/dL
IP [6]: 9 mg/dL
K [6]: 3.7 meq/L
LDH [6]: 47.6 IU/L
Na [6]: 142.2 meq/L
PL [6]: 149 mg/dL
RALB [6]: 2.5 g/dL
TBIL [6]: 0.066 mg/dL
TC [6]: 84.4 mg/dL
TG [6]: 24.4 mg/dL
TP [6]: 5.4 g/dL
gamma-GTP [6]: 1.4 IU/L
TERMINAL_BW [7]: 181 g
APTT [7]: 15.4 s
Bas [7]: 0%
Eos [7]: 1%
Fbg [7]: 282.4 mg/dL
Hb [7]: 12.4 g/dL
Ht [7]: 38.2%
Lym [7]: 64.4%
MCH [7]: 21.8 pg
MCHC [7]: 32.3%
MCV [7]: 67.4 fL
Mono [7]: 3%
Neu [7]: 30.4%
PT [7]: 14.5 s
Plat [7]: 120.7 x10_4/uL
RBC [7]: 567.2 x10_4/ul
Ret [7]: 10.7%
WBC [7]: 63.1 x10_2/uL
KIDNEY_L [7]: 0.8 g
KIDNEY_R [7]: 0.8 g
KIDNEY_TOTAL [7]: 1.7 g
LIVER [7]: 7.5 g
A/G [7]: 0.9
ALP [7]: 1242 IU/L
ALT [7]: 39.2 IU/L
AST [7]: 79 IU/L
BUN [7]: 10.4 mg/dL
CRE [7]: 0.1 mg/dL
Ca [7]: 10.8 mg/dL
Cl [7]: 103.8 meq/L
DBIL [7]: 0.006 mg/dL
GLC [7]: 196 mg/dL
IP [7]: 10.6 mg/dL
K [7]: 3.6 meq/L
LDH [7]: 69 IU/L
Na [7]: 141 meq/L
PL [7]: 135.2 mg/dL
RALB [7]: 2.4 g/dL
TBIL [7]: 0.062 mg/dL
TC [7]: 78.8 mg/dL
TG [7]: 23.2 mg/dL
TP [7]: 5.2 g/dL
gamma-GTP [7]: 1.4 IU/L
TERMINAL_BW [8]: 167.8 g
APTT [8]: 16.1 s
Bas [8]: 0%
Eos [8]: 0.5%
Fbg [8]: 368.8 mg/dL
Hb [8]: 14.1 g/dL
Ht [8]: 42.9%
Lym [8]: 69%
MCH [8]: 21.6 pg
MCHC [8]: 32.6%
MCV [8]: 66 fL
Mono [8]: 3.2%
Neu [8]: 26.5%
PT [8]: 15.8 s
Plat [8]: 112.2 x10_4/uL
RBC [8]: 651.8 x10_4/ul
Ret [8]: 8.6%
WBC [8]: 68.9 x10_2/uL
KIDNEY_L [8]: 0.8 g
KIDNEY_R [8]: 0.8 g
KIDNEY_TOTAL [8]: 1.6 g
LIVER [8]: 7 g
A/G [8]: 0.9
ALP [8]: 1162.2 IU/L
ALT [8]: 186 IU/L
AST [8]: 88 IU/L
BUN [8]: 15 mg/dL
CRE [8]: 0.2 mg/dL
Ca [8]: 10.6 mg/dL
Cl [8]: 105.8 meq/L
DBIL [8]: 0.0125 mg/dL
GLC [8]: 174.8 mg/dL
IP [8]: 9.7 mg/dL
K [8]: 3.4 meq/L
LDH [8]: 78.8 IU/L
Na [8]: 142.8 meq/L
PL [8]: 131.2 mg/dL
RALB [8]: 2.4 g/dL
TBIL [8]: 0.0825 mg/dL
TC [8]: 83.8 mg/dL
TG [8]: 39.8 mg/dL
TP [8]: 5.3 g/dL
gamma-GTP [8]: 0.8 IU/L
